Laboratory results as given in patent US10286084B2, “Compositions for the inactivation of virus replication and methods of making and using the same” (priority 2014, dated 2019).

Key:
HPV-18 E7 gene = test: Mutagenesis spectra: PCR, cloning and sequencing of HeLa genomic DNA; type: cell-based; conditions: Spy Cas9, 48 h post-transfection, of 232 DNA sequences
Experimental: (§1) HeLa cells were plated at 2.5×10^5 cells per well in 6-well plates and transfected using Fugene6 with a 3 to 1 ratio of RGN expression vector to pL/CMV/eGFP (pLCE) (Seedorf et al., 1987), which expresses eGFP, to determine transfection efficiency. Genomic DNA was extracted 48 hours post-transfection using a DNeasy kit (Qiagen) following the manufacturer's protocol. The genomic region surrounding the viral target sites was PCR amplified using GoTaq cocktail (Promega, #9PIM300) and then purified. PCR products were then denatured and reannealed to enable DNA heteroduplex formation: 95° C. for 10 min, 95° C. to 85° C. ramping at −1° C./sec, 85° C. to 25° C. at −0.25° C./sec, and 25° C. hold for 1 minute. After reannealing, products were treated with SURVEYOR nuclease and SURVEYOR enhancer S (Transgenomics) following the manufacturer's protocol, and analyzed on a 2% agarose gel. To determine the sequence spectra of the mutations introduced by HPV-18 E6- and E7-specific sgRNAs, we designed primers with unique restriction enzyme sites that bound sequences flanking the predicted RGN cleavage locations. The mutagenized HeLa genomic DNA was PCR amplified at 48 hours after transfection, cloned, sequenced, and aligned to the HeLa genome.
(§2) We next asked if we could inactivate the endogenous HPV-18 E6 and E7 genes integrated into the HeLa cell genome. As all four sgRNAs appeared to function equivalently, we focused our subsequent research on E6 sgRNA1 and E7 sgRNA1. To confirm these sgRNAs were indeed inducing the expected DNA cleavage, we used the SURVEYOR assay to determine if we could detect RGN-induced indels at the predicted Cas9 cleavage site. For this purpose, we transfected HeLa cells with a px330-based vector encoding Spy Cas9 (Cong et al., 2013) and an E6- or E7-specific sgRNA. At 48 hours post-transfection, we isolated the HeLa genomic DNA and PCR-amplified the regions of the HPV-18 genome containing either the E6 or E7 target site for Cas9. The resultant PCR fragment was then isolated, denatured and then re-annealed to produce a population of DNA heteroduplexes that were digested using SURVEYOR nuclease, which is predicted to cleave at any sites of Cas9-induced mutagenesis. […] To further characterize these mutations, we cloned the same PCR fragments derived from the HPV-18 E6 or E7 gene and then performed DNA sequencing across the predicted cleavage site located 3 bp 5′ to the Cas9 PAM sequence (Mali et al., 2013). Analysis of the HPV-18 E6 gene gave 234 DNA sequence reads, of which 19 bore an assortment of different deletion mutations while 34 contained the same insertion mutation of a single “A” residue 3 bp 5′ to the Spy Cas9 PAM motif. The remaining 181 samples analyzed contained the wildtype E6 sequence. […]

HPV-18 E6 gene = test: as above; type: cell-based; conditions: Spy Cas9, 48 h post-transfection, of 234 DNA sequence reads
Experimental: as §1, §2

| Substance | DNA sequences with deletion mutations adjacent to the predicted cleavage site (HPV-18 E7 gene) | DNA sequences with insertions of 1 or 2 bp (HPV-18 E7 gene) | DNA sequence reads bearing deletion mutations (HPV-18 E6 gene) | DNA sequence reads with insertion of a single A residue 3 bp 5′ to the PAM (HPV-18 E6 gene) |
| --- | --- | --- | --- | --- |
| E7 sgRNA1: Spy Cas9 sgRNA for HPV-18 E7, GGAGCAATTAAGCGACTCAG; SEQ ID NO: 10 (expressed or natural sequence) | 6 | 46 |  |  |
| E6 sgRNA1: Spy Cas9 sgRNA for HPV-18 E6, GGCGCTTTGAGGATCCAACA; SEQ ID NO: 8 (expressed or natural sequence) |  |  | 19 | 34 |
